Reference: the supplement of paper PMC10307832

The cell lines below were run with C[C@@H](C(=O)N[C@@H](C1CCCCC1)C(=O)N2CCC[C@H]2C(=O)N[C@@H]3[C@@H](CC4=CC=CC=C34)OCC#CC#CCO[C@@H]5CC6=CC=CC=C6[C@@H]5NC(=O)[C@@H]7CCCN7C(=O)[C@H](C8CCCCC8)NC(=O)[C@H](C)NC)NC [AZD5582] (assay: relative viability (nuclei count vs DMSO), 5 days (fraction); higher = more cells survive). Details: 0.001581 µM.
In short: (§1)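 Lung cancer cell lines were seeded into 1536-well plates, kept overnight at 37 °C and pinned with five library-drug doses (not always all listed) spaced by √10. After 5 days, nuclei were Hoechst-stained, imaged at 4× and counted with MetaXpress. Viability is treated-well nuclei over vehicle-well nuclei, taken as a median across plates. Plates needed control CV below 25% and at least one doubling.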

First: 201T
Second: A549
The relative viability of the first is higher: 1.03 for the first, 0.876 for the second.

Compared with A-427, ABC-1 is lower in relative viability: 0.917 for the first, 0.898 for the second.

First: BEN
Second: CAL-12T
The relative viability of the first is higher: 0.926 for the first, 0.647 for the second.

Going from COR-L23 to COR-L 105, the relative viability falls from 1.02 to 0.936.

Compared with Calu-6, ChaGo-K-1 is higher in relative viability: 0.83 for the first, 0.978 for the second.

Compared with EBC-1, EKVX is higher in relative viability: 0.867 for the first, 0.957 for the second.

Compared with EMC-BAC-2, EPLC-272H is lower in relative viability: 0.835 for the first, 0.263 for the second.

First: H3255
Second: HARA
The relative viability of the first is lower: 0.94 for the first, 0.974 for the second.

First: HCC-15
Second: HCC-44
The relative viability of the first is higher: 0.862 for the first, 0.822 for the second.

Going from HCC-78 to HCC-366, the relative viability rises from 0.85 to 0.978.

Compared with HCC-827, HOP-62 is lower in relative viability: 1.03 for the first, 0.875 for the second.

Compared with IA-LM, LC-2-ad is higher in relative viability: 0.77 for the first, 0.997 for the second.

Compared with LCLC-97TM1, LCLC-103H is higher in relative viability: 0.797 for the first, 1.02 for the second.

Going from LK-2 to LOU-NH91, the relative viability rises from 0.766 to 0.924.

First: LU99A
Second: LXF-289
The relative viability of the first is higher: 1.07 for the first, 0.958 for the second.

Going from NCI-H23 to NCI-H322M, the relative viability rises from 0.782 to 1.02.

Going from NCI-H441 to NCI-H522, the relative viability rises from 0.77 to 0.841.

Going from NCI-H1623 to NCI-H1648, the relative viability falls from 1.03 to 0.607.

First: NCI-H2342
Second: SW 900
The relative viability of the first is higher: 0.938 for the first, 0.628 for the second.

Same assay, conditions: 0.005 µM

First: 201T
Second: A549
The relative viability of the first is higher: 1.15 for the first, 1.01 for the second.

Going from A-427 to ABC-1, the relative viability rises from 0.971 to 1.03.

Compared with BEN, CAL-12T is lower in relative viability: 1.01 for the first, 0.724 for the second.

COR-L23 and COR-L 105 are the same in relative viability: 1.11 for the first, 1.11 for the second.

Compared with Calu-6, ChaGo-K-1 is higher in relative viability: 0.724 for the first, 1.02 for the second.

Going from EBC-1 to EKVX, the relative viability rises from 0.95 to 1.13.

Going from EMC-BAC-2 to H3255, the relative viability rises from 0.993 to 1.

Compared with HARA, HCC-15 is lower in relative viability: 1.1 for the first, 0.933 for the second.

Going from HCC-44 to HCC-78, the relative viability rises from 0.724 to 1.08.

Going from HCC-366 to HCC-827, the relative viability rises from 1.02 to 1.07.

Compared with HOP-62, IA-LM is lower in relative viability: 1.03 for the first, 0.86 for the second.

First: LC-2-ad
Second: LCLC-97TM1
The relative viability of the first is higher: 1.09 for the first, 1.06 for the second.

First: LCLC-103H
Second: LK-2
The relative viability of the first is higher: 1.14 for the first, 1.07 for the second.

First: LOU-NH91
Second: LU99A
The relative viability of the first is lower: 0.944 for the first, 1.02 for the second.

First: LXF-289
Second: NCI-H23
The relative viability of the first is higher: 1.01 for the first, 0.848 for the second.

Going from NCI-H322M to NCI-H441, the relative viability falls from 1.15 to 0.954.

Compared with NCI-H522, NCI-H1623 is higher in relative viability: 1 for the first, 1.08 for the second.

Going from NCI-H1648 to NCI-H2342, the relative viability rises from 0.894 to 1.01.

With SW 900 the relative viability was 0.851.

Same assay, conditions: 0.01581 µM

Going from 201T to A549, the relative viability falls from 0.971 to 0.928.

Going from A-427 to ABC-1, the relative viability falls from 0.882 to 0.767.

Compared with BEN, CAL-12T is lower in relative viability: 1.05 for the first, 0.784 for the second.

First: COR-L23
Second: COR-L 105
The relative viability of the first is higher: 0.966 for the first, 0.876 for the second.

First: Calu-6
Second: ChaGo-K-1
The relative viability of the first is higher: 0.989 for the first, 0.971 for the second.

Compared with EBC-1, EKVX is lower in relative viability: 0.964 for the first, 0.794 for the second.

Going from EMC-BAC-2 to EPLC-272H, the relative viability falls from 0.791 to 0.55.

First: H3255
Second: HARA
The relative viability of the first is higher: 0.862 for the first, 0.746 for the second.

Going from HCC-15 to HCC-44, the relative viability rises from 0.739 to 0.872.

Going from HCC-78 to HCC-366, the relative viability rises from 0.834 to 0.978.

Going from HCC-827 to HOP-62, the relative viability rises from 0.991 to 1.04.

Compared with IA-LM, LC-2-ad is higher in relative viability: 0.828 for the first, 0.965 for the second.

Compared with LCLC-97TM1, LCLC-103H is higher in relative viability: 0.644 for the first, 0.852 for the second.

First: LK-2
Second: LOU-NH91
The relative viability of the first is lower: 0.876 for the first, 0.882 for the second.

Compared with LU99A, LXF-289 is higher in relative viability: 0.954 for the first, 0.968 for the second.

Going from NCI-H23 to NCI-H322M, the relative viability rises from 0.477 to 0.938.

First: NCI-H441
Second: NCI-H522
The relative viability of the first is lower: 0.869 for the first, 0.957 for the second.

First: NCI-H1623
Second: NCI-H1648
The relative viability of the first is higher: 0.995 for the first, 0.554 for the second.

Going from NCI-H2342 to SW 900, the relative viability falls from 0.917 to 0.684.

Same assay, conditions: 0.05 µM

Going from 201T to A549, the relative viability falls from 1.21 to 0.999.

Going from A-427 to ABC-1, the relative viability rises from 0.721 to 0.936.

First: BEN
Second: CAL-12T
The relative viability of the first is higher: 0.828 for the first, 0.551 for the second.

Compared with COR-L23, COR-L 105 is lower in relative viability: 1.03 for the first, 1.02 for the second.

First: Calu-6
Second: ChaGo-K-1
The relative viability of the first is lower: 0.573 for the first, 0.975 for the second.

Going from EBC-1 to EKVX, the relative viability rises from 0.948 to 1.01.

Compared with EMC-BAC-2, EPLC-272H is lower in relative viability: 0.891 for the first, 0.116 for the second.

First: H3255
Second: HARA
The relative viability of the first is higher: 0.831 for the first, 0.662 for the second.

Going from HCC-15 to HCC-44, the relative viability falls from 0.847 to 0.483.

Compared with HCC-78, HCC-366 is higher in relative viability: 0.746 for the first, 1.08 for the second.

First: HCC-827
Second: HOP-62
The relative viability of the first is lower: 0.993 for the first, 1.06 for the second.

Compared with IA-LM, LC-2-ad is higher in relative viability: 0.897 for the first, 1.03 for the second.

Compared with LCLC-97TM1, LCLC-103H is higher in relative viability: 0.525 for the first, 1.01 for the second.

Compared with LK-2, LOU-NH91 is lower in relative viability: 1.23 for the first, 0.925 for the second.

First: LU99A
Second: LXF-289
The relative viability of the first is higher: 1.11 for the first, 1 for the second.

Compared with NCI-H23, NCI-H322M is higher in relative viability: 0.519 for the first, 1.03 for the second.

Going from NCI-H441 to NCI-H522, the relative viability falls from 0.982 to 0.795.

Compared with NCI-H1623, NCI-H1648 is lower in relative viability: 0.95 for the first, 0.824 for the second.

Compared with NCI-H2342, SW 900 is lower in relative viability: 1.07 for the first, 0.466 for the second.

The cell lines below were run with Cn1nnc2c(C(N)=O)ncn2c1=O [Temozolomide] in the same assay as above. Details: 0.2 µM.
In short: as §1

Going from 201T to A549, the relative viability rises from 0.978 to 1.04.
